Patent publication US6864253B2, “Benzo[4,5]thieno[2,3-c]pyridine and Benzo[4,5]furo[2,3-c]pyridine Derivatives Useful as Inhibitors of Phosphodiesterase” (Orth-McNeil Pharmaceutical, Inc., priority 2000, dated 2005)

Target: PDEV (Oryctolagus cuniculus, UniProt G1SX67)
Test: Cyclic nucleotide phosphodiesterase (PDE) assay, inhibition of PDEV isolated from rabbit tissue
Assay type: biochemical
Settings: 10 μM test compound, rabbit PDEV
Description: Briefly, rabbit or human tissues were homogenized in an ice-cold buffer solution containing 20 mM HEPES (pH 7.2), 0.25M sucrose, 1 mM EDTA, and 1 mM phenylmethylsulphonyl fluoride (PMSF). The homogenates were centrifuged at 100,000 g for 60 minutes at 4° C. The supernatant was filtered through […] filter and loaded on a Pharmacia Mono Q anion exchange column (1 ml bed volume) that was equilibrated with 20 mM HEPES, 1 mM EDTA and 0.5 mM PMSF. […] The fractions comprising various PDE activities were pooled separately and used in later studies.
The assays were adapted to a 96-well format. The enzyme was assayed in 5 mM MgCl2, 15 mM Tris HCl (pH 7.4), 0.5 mg/ml bovine serum albumin, 1 μM cGMP or cAMP, 0.1 μCi [^3H]-cGMP or [^3H]-cAMP, and 2-10 μl of column elution. The total volume of the assay was 100 μl. The reaction mixture was incubated at 30° C. for 30 minutes. The reaction was stopped by boiling for 1 minute and then cooled down on ice. The resulting [^3H] 5′-mononucleotides were further converted to uncharged [^3H]-nucleosides by adding 25 μl 1 mg/ml snake venom (Ophiophagus hannah) and incubating at 30° C. for 10 minute. The reaction was stopped by the addition of 1 ml Bio-Rad AG1-X2 resin slurry (1:3). All the charged nucleotides were bound by the resin and only the uncharged [^3H]-nucleosides remained in the supernatant after centrifuging. An aliquot of 200 μl was taken and counted by liquid scintillation. PDE activity was expressed as pmol cyclic nucleotide hydrolyzed/min/ml of enzyme preparation.
Inhibitor studies were carried out in assay buffer with a final concentration of 10% DMSO.

Compound	% Inh @ 10 μM (rabbit) [%]	other results
O=C(c1ccc(-c2ccc(Cl)cc2[N+](=O)[O-])o1)N1CCc2c([nH]c3ccccc23)C1c1ccc2c(c1)OCO2 (centres unmarked) [Cmpd 47]	–	% Inh @ 10 μM (rabbit) (10 µM): 83%
O=C(c1cnn(-c2ccccc2)c1C(F)(F)F)N1CCc2c([nH]c3ccccc23)C1c1ccc(Cl)c(Cl)c1 (racemic) [Cmpd 120]	18	–
COC(=O)c1ccc(C2c3[nH]c4ccccc4c3CCN2C(=O)c2cc(C(C)(C)C)nn2Cc2ccccc2)cc1 (centres unmarked) [Cmpd 140]	8	–
O=C(O)CCn1c2c(c3ccccc31)CCN(C(=O)c1ccc(-c3cccc(C(F)(F)F)c3)o1)C2c1ccc2c(c1)OCO2 (centres unmarked) [Cmpd 29]	79	–
O=C(c1ccc(-c2ccccc2)o1)N1CCc2c([nH]c3ccccc23)C1c1ccc2c(c1)OCO2 (centres unmarked) [Cmpd 149]	–	inhibition at 10 µM (read-out: % INH @ 10 μM (rabbit)): 80%
CC(C)(C)c1cc(C(=O)N2CCc3c([nH]c4ccccc34)C2c2ccc([N+](=O)[O-])cc2)n(Cc2ccccc2)n1 (centres unmarked) [Cmpd 142]	−5	–
N#Cc1ccc(C2c3[nH]c4ccccc4c3CCN2C(=O)c2cnn(-c3ccccc3)c2C(F)(F)F)cc1 (centres unmarked) [Cmpd 128]	11	–
O=S(=O)(c1ccccc1)c1ccc(S(=O)(=O)N2CCc3c([nH]c4ccccc34)C2c2ccc3c(c2)OCO3)s1 (centres unmarked) [Cmpd 145]	43	–
COC(=O)c1ccc(C2c3[nH]c4ccccc4c3CCN2C(=O)c2cnn(-c3ccccc3)c2C(F)(F)F)cc1 (centres unmarked) [Cmpd 129]	46	–
CN(C)c1ccc(C2c3[nH]c4ccccc4c3CCN2C(=O)c2ccc(-c3cccc(C(F)(F)F)c3)o2)cc1 (centres unmarked) [Cmpd 82]	13	–
Cc1oc(-c2ccccc2)cc1C(=O)N1CCc2c([nH]c3ccccc23)C1c1ccc2c(c1)OCO2 (racemic) [Cmpd 104]	72	–
O=C(c1cc(-c2ccc(Cl)cc2)oc1C(F)(F)F)N1CCc2c([nH]c3ccccc23)C1c1ccc2c(c1)OCO2 (racemic) [Cmpd 105]	40	–
N#Cc1ccc(C2c3[nH]c4ccccc4c3CCN2C(=O)c2ccc(-c3cccc(C(F)(F)F)c3)o2)cc1 (centres unmarked) [Cmpd 81]	18	–
O=C(c1ccc(-c2cccc([N+](=O)[O-])c2)o1)N1CCc2c(sc3ccccc23)C1c1ccc2c(c1)OCO2 (centres unmarked) [Cmpd 76]	27	–
COC(=O)C1Cc2c([nH]c3ccccc23)C(c2ccc3c(c2)OCO3)N1C(=O)c1ccc(-c2cccc([N+](=O)[O-])c2)o1 (centres unmarked) [Cmpd 73]	20	–
O=C(c1ccc(-c2cccc(C(F)(F)F)c2)o1)N1CCc2c(n(Cc3ccncc3)c3ccccc23)C1c1ccc2c(c1)OCO2 (centres unmarked) [Cmpd 74]	84	–
CN(C)CCn1c2c(c3ccccc31)CCN(C(=O)c1ccc(-c3cc(C(F)(F)F)ccc3Cl)o1)C2c1ccc2c(c1)OCO2 (centres unmarked) [Cmpd 43]	22	–
N#Cc1ccc(C2c3[nH]c4ccccc4c3CCN2C(=O)c2ccc(-c3cccc([N+](=O)[O-])c3)o2)cc1 (centres unmarked) [Cmpd 80]	27	–
COc1ccc(-c2cnc(N3CC(O)c4c([nH]c5ccccc45)C3c3ccc4c(c3)OCO4)nc2)cc1 (stereo not drawn) [Cmpd 158, 1-(3,4-Methylenedioxy-phenyl)-2-[5-(4-methoxyphenyl)-pyrimidin-2-yl]-4-hydoxy-2,3,4,9-tetrahydro-1H-β-carboline]	–	% INH @ 10 μM (rabbit) (10 µM): 49%
O=C(c1ccc(Cl)nc1)N1CCc2c([nH]c3ccccc23)C1c1ccc2c(c1)OCO2 (racemic) [Cmpd 108]	48	–
CN(C)CCn1c2c(c3ccccc31)CCN(C(=O)c1ccc(-c3cccc(C(F)(F)F)c3)o1)C2c1ccc2c(c1)OCO2 (centres unmarked) [Cmpd 35]	98	–

Compound	% Inh @ 10 μM (rabbit) [%]	other results
COc1ccc(-c2cnc(N3CCc4c(n(CCN(C)C)c5ccccc45)C3c3ccc4c(c3)OCO4)nc2)cc1 (centres unmarked) [Cmpd 6]	95	–
CC(C)(C)c1ccc(C(=O)N2CCc3c([nH]c4ccccc34)C2c2ccc3c(c2)OCO3)o1 (centres unmarked) [Cmpd 65]	66	–
O=C(c1cc2ccccc2s1)N1CCc2c([nH]c3ccccc23)C1c1ccc2c(c1)OCO2 (centres unmarked) [Cmpd 18]	87	–
O=C(c1ccc(-c2cccc(C(F)(F)F)c2)o1)N1CCc2c(n(Cc3ccccn3)c3ccccc23)C1c1ccc2c(c1)OCO2 (centres unmarked) [Cmpd 26]	88	–
CN(C)CCn1c2c(c3ccccc31)CCN(c1ncc(-c3ccc(Cl)cc3)cn1)C2c1ccc2c(c1)OCO2 (centres unmarked) [Cmpd 4]	94	–
Cc1ccc(-c2cnc(N3CCc4c(n(-c5ncc(-c6ccc(C)cc6)cn5)c5ccccc45)C3c3ccc4c(c3)OCO4)nc2)cc1 (centres unmarked) [Cmpd 166]	–	% INH @ 10 μM (rabbit): 58%
CS(=O)(=O)c1ccc(-c2cnc(N3CCc4c([nH]c5ccccc45)C3c3ccc4c(c3)OCO4)nc2)c([N+](=O)[O-])c1 (centres unmarked) [Cmpd 8]	89	–
COC(=O)CCn1c2c(c3ccccc31)CCN(C(=O)c1ccc(-c3cccc(C(F)(F)F)c3)o1)C2c1ccc2c(c1)OCO2 (centres unmarked) [Cmpd 23]	30	–
COc1ccc(-c2cnc(N3CC(O)c4c([nH]c5ccccc45)C3c3ccc4c(c3)OCO4)nc2)cc1 (centres unmarked) [Cmpd 164]	–	% INH @ 10 μM (rabbit) (10 µM): 82%
CN(C)CCn1c2c(c3ccccc31)CCN(C(=O)c1cc3ccccc3s1)C2c1ccc2c(c1)OCO2 (centres unmarked) [Cmpd 17]	88	–
COC(=O)c1ccc(C2c3[nH]c4ccccc4c3CCN2C(=O)c2c(-c3ccccc3)noc2C)cc1 (racemic) [Cmpd 116]	32	–
c1ccc2oc(N3CCc4c(n(-c5nc6ccccc6o5)c5ccccc45)C3c3ccc4c(c3)OCO4)nc2c1 (centres unmarked) [Cmpd 150]	–	% INH @ 10 μM (rabbit): 4%
COc1ccc2cc(C(=O)N3CCc4c([nH]c5ccccc45)C3c3ccc4c(c3)OCO4)oc2c1 (centres unmarked) [Cmpd 15]	90	–
COc1ccc(C2c3[nH]c4ccccc4c3CCN2C(=O)c2c(-c3ccccc3)noc2C)cc1OC (racemic) [Cmpd 110]	32	–
Cc1cc(C)cc(C2c3[nH]c4ccccc4c3CCN2C(=O)c2cnn(-c3ccccc3)c2C(F)(F)F)c1 (centres unmarked) [Cmpd 126]	12	–
O=C(c1ccc(-c2cccc([N+](=O)[O-])c2)o1)N1CCc2c([nH]c3ccccc23)C1c1ccc2c(c1)OCO2 (centres unmarked) [Cmpd 54]	81	–
O=C(c1cnn(-c2ccccc2)c1C(F)(F)F)N1CCc2c([nH]c3ccccc23)C1c1ccc([N+](=O)[O-])cc1 (centres unmarked) [Cmpd 131]	12	–
CN(C)CCn1c2c(c3ccccc31)CCN(C(=O)c1ccc(-c3ccc(Cl)cc3[N+](=O)[O-])o1)C2c1ccc2c(c1)OCO2 (centres unmarked) [Cmpd 40]	78	–
CC(=O)Nc1cccc(-c2ccc(C(=O)N3CCc4c([nH]c5ccccc45)C3c3ccc4c(c3)OCO4)o2)c1 (centres unmarked) [Cmpd 55]	70	–
COC(=O)Cn1c2c(c3ccccc31)CCN(C(=O)c1ccc(-c3cccc(C(F)(F)F)c3)o1)C2c1ccc2c(c1)OCO2 (centres unmarked) [Cmpd 25]	20	–
